ChEMBL document CHEMBL5385876, “Discovery of unglycosylated indolocarbazoles as ROCK2 isoform-selective inhibitors for the treatment of breast cancer metastasis” (Eur J Med Chem, 2023)
Calls of active or inactive are those of the source. The calls are words filed in the database; no cut-off is given here.

What was measured:
MDA-MB-231 [1] = test: Antimetastatic activity in human MDA-MB-231 cells assessed as appearance of disordered and sparse actin filament at 5 uM incubated for 24 hrs by SEM analysis; format: functional, cell-based
[2] = Toxicity in BALB/c nude mouse xenografted with human MDA-MB-231 cells harboring Luc-mcherry assessed as reduction in body weight at 15 mg/kg, iv administered once a day for 45 days; format: organism-based; conditions: in vivo, 1080 h, time 45 day
MDA-MB-231 [3] = test: Inhibition of cell invasion in human MDA-MB-231 cells incubated for 48 hrs by crystal violet staining based transwell assay; format: functional; conditions: dose 1.25-10 µM
SK-OV-3 = test: Inhibition of cell invasion in human SK-OV-3 cells at 1.25 to 10 uM incubated for 48 hrs by crystal violet staining based transwell assay; format: functional; conditions: dose 1.25-10 µM
MDA-MB-231 [4] = test: Downregulation of phosphorylated STAT1 protein expression in human MDA-MB-231 cells at 0.5 uM incubated for 24 hrs by Western blot analysis; format: functional, cell-based
MDA-MB-231 [5] = test: Downregulation of phosphorylated STAT2 protein expression in human MDA-MB-231 cells at 0.5 uM incubated for 24 hrs by Western blot analysis; format: functional, cell-based
MDA-MB-231 [6] = test: Downregulation of phosphorylated STAT3 protein expression in human MDA-MB-231 cells at 0.5 uM incubated for 24 hrs by Western blot analysis; format: functional, cell-based
[7] = MRT (0 to t) in ICR mouse at 15 mg/kg, iv administered as single dose and measured for 8 hrs by LC-MS/MS analysis; format: ADME, organism-based; conditions: in vivo
[8] = MRT (0 to infinity) in ICR mouse at 15 mg/kg, iv administered as single dose and measured for 8 hrs by LC-MS/MS analysis; format: ADME, organism-based; conditions: in vivo
[9] = molecular target: Rho-associated protein kinase 1 (Homo sapiens, UniProt Q13464); test: Inhibition of ROCK1 (unknown origin)
Chain of Rho-associated protein kinase 1 (Q13464 whole entry, the tested form may be a part): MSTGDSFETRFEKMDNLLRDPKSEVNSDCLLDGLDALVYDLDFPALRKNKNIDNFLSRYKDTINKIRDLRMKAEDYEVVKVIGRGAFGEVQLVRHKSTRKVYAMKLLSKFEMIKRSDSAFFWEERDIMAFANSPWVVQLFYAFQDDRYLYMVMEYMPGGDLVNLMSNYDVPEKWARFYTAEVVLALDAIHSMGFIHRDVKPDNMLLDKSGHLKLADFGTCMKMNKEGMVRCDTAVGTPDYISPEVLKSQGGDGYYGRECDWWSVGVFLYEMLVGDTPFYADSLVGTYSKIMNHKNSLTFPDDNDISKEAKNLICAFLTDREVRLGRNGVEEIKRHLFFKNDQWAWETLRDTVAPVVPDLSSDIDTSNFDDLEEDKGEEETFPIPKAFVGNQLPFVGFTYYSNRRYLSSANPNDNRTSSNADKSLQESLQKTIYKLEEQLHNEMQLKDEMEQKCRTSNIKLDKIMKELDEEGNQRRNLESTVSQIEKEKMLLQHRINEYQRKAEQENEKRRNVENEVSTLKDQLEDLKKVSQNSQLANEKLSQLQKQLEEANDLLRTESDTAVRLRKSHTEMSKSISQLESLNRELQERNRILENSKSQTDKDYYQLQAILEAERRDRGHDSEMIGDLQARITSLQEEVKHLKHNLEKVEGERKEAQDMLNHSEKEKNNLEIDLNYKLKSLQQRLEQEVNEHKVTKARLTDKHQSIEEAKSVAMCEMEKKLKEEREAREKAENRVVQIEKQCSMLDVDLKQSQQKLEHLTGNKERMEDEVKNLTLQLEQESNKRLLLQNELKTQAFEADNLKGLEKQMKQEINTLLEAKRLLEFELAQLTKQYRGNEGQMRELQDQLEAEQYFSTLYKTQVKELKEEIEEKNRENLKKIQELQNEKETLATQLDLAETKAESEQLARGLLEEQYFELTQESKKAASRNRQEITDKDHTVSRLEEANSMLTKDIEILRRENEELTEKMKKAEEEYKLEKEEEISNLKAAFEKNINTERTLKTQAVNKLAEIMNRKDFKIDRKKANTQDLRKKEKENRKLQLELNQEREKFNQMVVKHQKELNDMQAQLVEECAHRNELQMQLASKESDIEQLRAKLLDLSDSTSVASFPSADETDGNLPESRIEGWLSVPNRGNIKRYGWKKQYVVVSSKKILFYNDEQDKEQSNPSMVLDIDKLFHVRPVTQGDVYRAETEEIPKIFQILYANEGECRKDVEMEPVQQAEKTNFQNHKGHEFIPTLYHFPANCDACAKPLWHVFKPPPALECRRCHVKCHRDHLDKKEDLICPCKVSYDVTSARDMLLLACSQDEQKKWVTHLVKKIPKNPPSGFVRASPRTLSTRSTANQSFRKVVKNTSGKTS

[10] = Selectivity index, ratio of IC50 for ROCK2 (unknown origin) to IC50 for N-terminal His10-StrepII tagged human ROCK2 catalytic domain (1 to 553 residues) expressed in Sf9 insect cells
[11] = molecular target: Signal transducer and activator of transcription 3 (Homo sapiens) (UniProt P40763); test: Inhibition of STAT3 transcriptional activity in human MDA-MB-231 cells assessed as reduction in MMP2 mRNA level at 5 uM incubated for 24 hrs by qRT-PCR analysis; format: cell-based
Chain of Signal transducer and activator of transcription 3 (Homo sapiens) (P40763 whole entry): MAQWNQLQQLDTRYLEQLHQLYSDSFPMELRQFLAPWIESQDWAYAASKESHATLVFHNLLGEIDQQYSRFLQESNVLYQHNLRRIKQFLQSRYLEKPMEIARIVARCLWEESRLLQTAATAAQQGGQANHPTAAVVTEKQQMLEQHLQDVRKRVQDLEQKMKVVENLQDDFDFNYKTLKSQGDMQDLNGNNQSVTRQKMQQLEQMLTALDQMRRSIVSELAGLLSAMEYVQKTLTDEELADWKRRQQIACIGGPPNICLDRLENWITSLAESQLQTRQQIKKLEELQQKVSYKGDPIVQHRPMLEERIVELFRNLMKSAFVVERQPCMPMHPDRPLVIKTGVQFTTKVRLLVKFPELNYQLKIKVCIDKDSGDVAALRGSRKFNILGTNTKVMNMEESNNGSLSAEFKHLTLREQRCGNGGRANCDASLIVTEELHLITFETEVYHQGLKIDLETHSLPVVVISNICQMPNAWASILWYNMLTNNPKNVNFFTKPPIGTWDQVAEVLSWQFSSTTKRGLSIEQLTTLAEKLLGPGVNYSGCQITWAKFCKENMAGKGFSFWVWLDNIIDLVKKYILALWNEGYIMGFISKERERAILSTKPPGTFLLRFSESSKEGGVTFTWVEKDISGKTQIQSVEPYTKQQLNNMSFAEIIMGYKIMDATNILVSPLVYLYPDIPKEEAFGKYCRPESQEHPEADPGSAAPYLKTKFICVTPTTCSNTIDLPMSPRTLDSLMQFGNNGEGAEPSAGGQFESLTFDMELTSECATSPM

[12] = molecular target: Signal transducer and activator of transcription 3 (Homo sapiens) (UniProt P40763); test: Inhibition of STAT3 transcriptional activity in human MDA-MB-231 cells assessed as reduction in TWIST1 mRNA level at 5 uM incubated for 24 hrs by qRT-PCR analysis; format: cell-based
MDA-MB-231 [13] = test: Inhibition of IL-6 stimulated cell invasion in human MDA-MB-231 cells at 5 uM incubated for 24 hrs by crystal violet staining based transwell assay; format: functional
[14] = molecular target: Rho-associated protein kinase 2 (Homo sapiens, UniProt O75116); test: Binding affinity to wild type N-terminal His10-StrepII tagged human ROCK2 catalytic domain (1 to 553 residues) expressed in Sf9 insect cells assessed as change in melting temperature at 50 uM by SYPRO orange dye based thermal shift assay
Chain of Rho-associated protein kinase 2 (O75116 whole entry, looked up, the tested form may be a part): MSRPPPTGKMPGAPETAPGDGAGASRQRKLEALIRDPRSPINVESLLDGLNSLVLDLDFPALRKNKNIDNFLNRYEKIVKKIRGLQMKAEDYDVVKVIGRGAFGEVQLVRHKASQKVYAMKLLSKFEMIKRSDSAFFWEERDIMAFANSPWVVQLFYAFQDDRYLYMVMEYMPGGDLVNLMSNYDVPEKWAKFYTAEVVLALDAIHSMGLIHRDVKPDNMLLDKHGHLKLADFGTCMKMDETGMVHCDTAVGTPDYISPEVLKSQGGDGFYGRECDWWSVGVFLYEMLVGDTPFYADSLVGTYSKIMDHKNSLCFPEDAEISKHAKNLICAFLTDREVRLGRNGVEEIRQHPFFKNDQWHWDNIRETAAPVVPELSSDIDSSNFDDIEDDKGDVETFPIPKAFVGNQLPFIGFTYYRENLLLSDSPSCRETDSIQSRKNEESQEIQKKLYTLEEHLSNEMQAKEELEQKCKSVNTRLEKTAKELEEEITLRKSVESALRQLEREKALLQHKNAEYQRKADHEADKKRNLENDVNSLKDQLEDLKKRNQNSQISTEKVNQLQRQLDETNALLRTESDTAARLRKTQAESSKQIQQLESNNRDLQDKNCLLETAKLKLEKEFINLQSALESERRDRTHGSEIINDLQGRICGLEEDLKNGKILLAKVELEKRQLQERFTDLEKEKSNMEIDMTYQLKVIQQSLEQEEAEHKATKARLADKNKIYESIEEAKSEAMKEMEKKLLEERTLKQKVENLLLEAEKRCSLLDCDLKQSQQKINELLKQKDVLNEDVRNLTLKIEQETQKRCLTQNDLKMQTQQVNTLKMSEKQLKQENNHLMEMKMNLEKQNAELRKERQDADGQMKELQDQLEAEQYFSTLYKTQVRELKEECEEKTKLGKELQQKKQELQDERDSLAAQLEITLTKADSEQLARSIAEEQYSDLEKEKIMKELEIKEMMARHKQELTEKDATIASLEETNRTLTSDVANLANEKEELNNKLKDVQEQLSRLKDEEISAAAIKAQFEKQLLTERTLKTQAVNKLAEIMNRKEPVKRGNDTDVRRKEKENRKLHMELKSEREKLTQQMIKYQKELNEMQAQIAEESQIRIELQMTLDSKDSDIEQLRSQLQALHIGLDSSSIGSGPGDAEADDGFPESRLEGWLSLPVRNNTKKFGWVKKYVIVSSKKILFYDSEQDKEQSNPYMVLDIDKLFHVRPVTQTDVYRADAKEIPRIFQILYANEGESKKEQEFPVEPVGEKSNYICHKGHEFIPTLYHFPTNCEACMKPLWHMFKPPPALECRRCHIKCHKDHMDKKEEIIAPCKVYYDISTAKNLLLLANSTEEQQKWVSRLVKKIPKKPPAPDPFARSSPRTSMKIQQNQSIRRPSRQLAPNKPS

[15] = molecular target: High affinity nerve growth factor receptor (Homo sapiens) (UniProt P04629); test: Inhibition of human recombinant TRKA at 125 nM
Chain of High affinity nerve growth factor receptor (Homo sapiens) (P04629 33-796 limits assumed): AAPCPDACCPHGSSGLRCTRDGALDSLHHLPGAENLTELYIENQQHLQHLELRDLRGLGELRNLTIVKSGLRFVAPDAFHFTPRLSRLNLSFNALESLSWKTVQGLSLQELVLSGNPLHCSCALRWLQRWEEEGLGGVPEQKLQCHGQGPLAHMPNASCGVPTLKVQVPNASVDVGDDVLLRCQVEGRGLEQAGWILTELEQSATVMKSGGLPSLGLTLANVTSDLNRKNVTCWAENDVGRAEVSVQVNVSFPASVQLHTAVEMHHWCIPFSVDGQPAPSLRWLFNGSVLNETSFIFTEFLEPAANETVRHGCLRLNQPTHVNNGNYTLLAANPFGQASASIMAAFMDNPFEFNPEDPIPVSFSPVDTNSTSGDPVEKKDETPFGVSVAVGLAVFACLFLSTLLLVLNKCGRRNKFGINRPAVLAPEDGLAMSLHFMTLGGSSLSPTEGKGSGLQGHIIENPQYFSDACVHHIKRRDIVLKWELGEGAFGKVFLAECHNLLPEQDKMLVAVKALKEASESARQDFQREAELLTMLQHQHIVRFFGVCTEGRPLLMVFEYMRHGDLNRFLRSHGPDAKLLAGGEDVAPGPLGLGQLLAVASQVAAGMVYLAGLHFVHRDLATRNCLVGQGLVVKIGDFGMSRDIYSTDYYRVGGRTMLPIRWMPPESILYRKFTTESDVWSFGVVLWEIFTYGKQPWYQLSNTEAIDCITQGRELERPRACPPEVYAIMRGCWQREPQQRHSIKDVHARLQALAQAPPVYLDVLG

[16] = molecular target: Misshapen-like kinase 1 (Homo sapiens) (UniProt Q8N4C8); test: Inhibition of human recombinant MINK1 at 125 nM
[17] = molecular target: Maternal embryonic leucine zipper kinase (Homo sapiens) (UniProt Q14680); test: Inhibition of human recombinant MELK at 125 nM
Chain of Maternal embryonic leucine zipper kinase (Homo sapiens) (Q14680 whole entry, looked up): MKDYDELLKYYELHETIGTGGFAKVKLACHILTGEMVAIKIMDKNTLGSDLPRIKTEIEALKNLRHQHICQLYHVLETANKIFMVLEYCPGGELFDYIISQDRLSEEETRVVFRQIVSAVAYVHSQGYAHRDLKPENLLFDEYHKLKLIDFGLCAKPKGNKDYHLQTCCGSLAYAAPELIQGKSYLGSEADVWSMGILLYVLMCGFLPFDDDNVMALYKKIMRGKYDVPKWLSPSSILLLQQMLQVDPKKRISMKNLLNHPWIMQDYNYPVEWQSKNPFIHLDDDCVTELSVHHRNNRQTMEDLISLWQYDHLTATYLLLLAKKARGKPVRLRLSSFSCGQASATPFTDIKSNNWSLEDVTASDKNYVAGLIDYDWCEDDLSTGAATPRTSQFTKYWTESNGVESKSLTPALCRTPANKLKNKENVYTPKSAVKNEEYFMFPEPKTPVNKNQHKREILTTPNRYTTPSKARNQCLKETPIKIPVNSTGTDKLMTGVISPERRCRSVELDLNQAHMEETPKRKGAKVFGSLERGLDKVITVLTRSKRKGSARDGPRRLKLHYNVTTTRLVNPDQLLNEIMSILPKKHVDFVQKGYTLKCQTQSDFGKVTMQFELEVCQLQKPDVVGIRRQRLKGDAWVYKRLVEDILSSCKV

[18] = molecular target: 3-phosphoinositide-dependent protein kinase 1 (Homo sapiens) (UniProt O15530); test: Inhibition of human recombinant PDK1 at 125 nM

With `O=C1NCc2c1c1c3cc(O)ccc3[nH]c1c1[nH]c3ccccc3c21` as the molecule, how does the Activity (MDA-MB-231 [1]) read?
The Activity was “Active”.

What about the Activity [2] of the same molecule?
Its Activity is “Non-Toxic”.

What about the inhibition (MDA-MB-231 [3]) of the same molecule?
The inhibition was “Dose-Dependent Effect”.

And the inhibition (SK-OV-3)?
Its inhibition is “Active”.

And the Activity (MDA-MB-231 [4])?
The Activity was “Active”.

And the Activity (MDA-MB-231 [5])?
The Activity was “Active”.

And the Activity (MDA-MB-231 [6])?
The Activity was “Active”.

What about the MRT last at 8 h [7] of the same molecule?
The MRT last at 8 h was 10.8 min.

What about the MRT inf [8] of the same molecule?
The MRT inf was 10.8 min.

What about the IC50 [9] of the same molecule?
The IC50 was 923 nM.

And the Ratio IC50 [10]?
The Ratio IC50 was > 100.

What about the inhibition [11] of the same molecule?
The inhibition was “Active”.

What about the inhibition [12] of the same molecule?
Its inhibition is “Active”.

What about the inhibition (MDA-MB-231 [13]) of the same molecule?
Its inhibition is “Active”.

What about the Activity [14] of the same molecule?
The Activity was “Active”.

And the inhibition [15]?
The inhibition was “Active”.

And the inhibition [16]?
Its inhibition is “Active”.

What about the inhibition [17] of the same molecule?
Its inhibition is “Active”.

What about the inhibition [18] of the same molecule?
The inhibition was “Active”.
